For 88 molecules, melting point results are on record in a melting point compilation (Tetko et al.; mined from patent text by program, amines drawn as free bases though some values may be those of a salt).

A value given as a limit tells only on which side of the number the result lay.

As for `CN1CCN(C2=Nc3ccc(Cl)cc3S(=O)(=O)N2)CC1`, the melting point – broadly, the temperature, or range, at which the solid turns liquid – is above 300 °C.
As for `O=C(Cl)N1CC(Oc2ccccc2Cl)C1`, the figure is 80 to 82 °C; as for `CC1CC(n2ccc(-c3ccc(F)cc3)c2-c2ccncc2)CCN1` (stereo not drawn), 173 to 175 °C; as for `O=C(/C=C/C=C(c1cccc([N+](=O)[O-])c1)c1cccc([N+](=O)[O-])c1)NCCCCc1cccnc1`, 158 to 159 °C.
As to `CCOC(=O)c1ccc(NCCOc2ccccc2)cc1`, the melting point fell in the range of 126 to 129 °C.
Turning to `COC(=O)c1cc2ccc(OCc3ccccc3)cc2oc1=O`, the melting point lay within 129 to 130 °C.
`C#CCN1C=CC(c2c(O)cc(C(C)C(C)CCCCC)cc2OC)CC1` (stereo not drawn): the melting point fell in the range of 113 to 115 °C.
In turn, `CCOC(=O)COc1ccc(Cn2c(-c3ccc(Cl)cc3)c(C)c3cc(OCc4ccccc4)ccc32)cc1` came in with a melting point of 99 to 101 °C.
`O=C1C(Cl)=C(Nc2ccc(S(=O)(=O)Nc3ccccc3)cc2)C(=O)c2ccccc21` returned a melting point of 220 to 223 °C.
Molecule `Nc1ncc2c(=O)c(C(=O)ON3C(=O)CCC3=O)c[nH]c2n1` displayed a melting point above 300 °C.
In the case of `CC(C)Cc1nc2sc3c(NCc4cccnc4)ncnc3c2c2c1COC(C)(C)C2` it was 244 to 245 °C; in that of `O=C(CCl)N1CC=C(c2cccc(C(F)(F)F)c2)n2ncc(Br)c21`, 128 to 130 °C; in that of `O=C(O)CCCc1ccc(-c2ccccc2Cl)cc1`, 60 to 61 °C.
Turning to `COc1cc2nc(N3CCN(C(=O)CCCO)CC3)nc(N)c2cc1OC`, the melting point lay in the range of 241 to 243 °C.
In turn, `OCc1cn(C(c2ccccc2)(c2ccccc2)c2ccccc2)cn1` had a melting point of 224 to 227 °C.
`COC(=O)c1cccc(-c2ccccc2)c1S(C)(=O)=O`: the melting point lay within 101 to 115 °C.
As for `Cc1ccccc1-c1cc(N2CCOCC2)ncc1C(N)=O`, the figure is 144 to 145 °C; as for `CCSc1cc(C)nc(SCC)c1NC(=O)CSc1nc2cccc(S(C)(=O)=O)c2o1`, 159 to 162 °C; as for `O=C1N=CN(c2ccc(Cl)cc2)C12CCN(Cc1ccccc1)CC2`, 217 to 219 °C.
As for `FC(F)(F)c1cnc(Cc2ccc(Cl)cc2)c(Cl)c1`, the melting point fell in the range of 54 to 56 °C.
With `CC(=O)Nc1cc(C(C)(C)C)cc(OCc2ccccc2)c1C`, the melting point was 170 to 172 °C.
`FC(F)(F)c1cccc(C2OC3(CCNCC3)N3CCCCC23)c1` (stereo not drawn) yielded a melting point of 158 to 160 °C.
As for `COC(=O)c1cc2cc(Br)ccc2nc1C`, the melting point lay in the range of 150 to 151 °C.
The molecule `CCOC[C@@H]1CNCC[C@@H]1c1ccc(Cl)c(Cl)c1` displayed a melting point of 68 to 70 °C.
Take `CNc1cnc(-c2cccnc2)s1`: the melting point lay in the range of 141 to 146 °C.
As to `O=C(Nc1c(C(O)(C(F)(F)F)C(F)(F)F)ccc2ccccc12)C1CC1`, the melting point fell in the range of 163 to 165 °C.
Turning to `Cn1cc(C[C@H]2NC(=O)[C@@H](CCCN)NC2=O)c2ccccc21`, the melting point worked out at 148 °C.
For the molecule `CC(C)(C)N(C=O)N=NNC=O`, the melting point lay within 103 to 105 °C.
With `Cc1cc(-c2cc(C(F)F)n3ncc(C(=O)Nc4cccc(S(N)(=O)=O)c4)c3n2)ccc1C(F)(F)F`, the melting point worked out at 252 °C.
Regarding `CC(C)(C)OC(=O)N1CCC[C@@H]1Cc1cccc2ccc(N)cc12`, the melting point lay in the range of 157 to 158 °C.
In the case of `CCOC(=O)[C@H](Cc1cccc(-c2ccc3ccccc3c2)c1)NC(=O)C(F)(F)F` it was 89 to 91 °C; in that of `CC(=O)N1CCN(C(=O)c2nc(-c3ccccc3)c(-c3ccc(=O)n(C(C)C)n3)s2)CC1`, 78 to 82 °C.
As for `N#Cc1ccc([C@H]2CC[C@H](CI)CC2)cc1`, the figure is 127 °C; as for `CC1(C)C(=O)C(C)(C)c2cc3[nH]c(S)nc3cc21`, above 300 °C; as for `COc1ccc2[nH]cc(CCc3nc4ccccc4c(=O)n3-c3ccccc3)c2c1`, 220 to 221 °C.
In turn, `Cc1cccc2c3c(n(Cc4ccc(Cl)cc4)c12)C(CC(=O)O)CCC3` (single isomer, unassigned; (-)) registered a melting point of 196 to 198 °C.
Molecule `CCOC(=O)C1=Cc2cc(I)ccc2NC1C(F)(F)F` (stereo not drawn) displayed a melting point of 137 to 138 °C.
`O=[N+]([O-])c1cc(Cl)ccc1N1CCc2ccccc21` had a melting point of 97 to 99 °C.
For the molecule `O=C(O)Cc1ccc(NC(=O)C(CCc2ccccc2)NS(=O)(=O)c2ccc(Br)cc2)cc1` (racemic), the melting point lay within 155 to 160 °C.
In the case of `C#Cc1ccc([Si](OC)(OC)OC)cc1` it was 38 to 39 °C; in that of `CC(=O)Oc1ccc(CI)cc1C(OC(C)=O)OC(C)=O`, 117 to 120 °C.
The molecule `CC(=O)OCC(=O)NCc1nc(-c2csc(N=C(N)N)n2)cs1` showed a melting point of 182 to 183 °C.
In the case of `Cn1c(-c2nnc(Cc3ccc(F)cc3)o2)c(O)c(=O)c2ccccc21` it was 222 °C.
`CS(=O)(=O)c1ccc(C(CC2CCCC2)C(=O)Nc2ncc(C(=O)O)s2)cc1` (stereo not drawn) showed a melting point of 172 to 176 °C.
As for `Nc1c(Cl)cc(C(=O)NC2CCN(CC3CCCO3)CC2)c2c1CCO2` (stereo not drawn), the melting point worked out at 175 °C.
In turn, `CCCC(=O)c1cnc2c(CO)cccc2c1Nc1ccc(F)cc1C` returned a melting point of 168 to 170 °C.
`CCOC(=O)C1=CNC2=C(C(=O)OC)CCC(C)N2C1=O` (stereo not drawn) had a melting point of 136 to 139 °C.
As for `Nc1cc(-n2nc3ccc(Cl)cn3c2=O)c(F)cc1Cl`, the melting point was in the range of 247 to 250 °C.
With `NCCC(=O)Nc1ccc(Nc2ccccc2)cc1`, the melting point lay within 108 to 110 °C.
The molecule `O=C1C=C(Nc2c(Br)cccc2Br)CCN1` gave a melting point of 240 to 243 °C.
On to `O=C(CCCCCNC(=O)CCc1ccccc1)NO`, for which the melting point was determined as 107 °C.
As for `COc1cc2c(cc1Nc1ncc(Cl)c(Nc3ccc(N4CCOCC4)cc3OC)n1)CCN(CC(=O)N1CCOCC1)CC2`, the figure is 189 to 191 °C; as for `C[C@H]1C[C@@H](Nc2ccccc2)c2ccccc2N1C(=O)c1ccncc1` (relative stereo), 121 °C.
Take `COc1ccc(CC(=O)Nc2cccc(/C=C/c3nc(C4CCC4)cs3)c2)c(C(=O)O)c1`: the melting point lay within 190 to 191 °C.
Turning to `COc1ccc2c(c1)c1c(n2C(=O)c2ccc(Cl)cc2)CCC(C(=O)O)C1` (stereo not drawn), the melting point was 269 to 273 °C.
In turn, `O=C1CCN(C2c3ccccc3C=Cc3ccccc32)CC1C(c1ccccc1)c1ccccc1` (stereo not drawn) showed a melting point of 175 to 178 °C.
In turn, `CCCCn1ncc2c1nc(N)n1nc(-c3ccco3)nc21` showed a melting point of 157 to 158 °C.
For the molecule `Oc1cc2cc(C3CCCCC3)sc2c(Cl)c1Cl`, the melting point lay in the range of 59 to 60 °C.
The molecule `O=C(Nc1ccccc1)NN1CCc2[nH]c(=O)n3nc(-c4ccccc4F)nc3c2C1` had a melting point of 291 to 293 °C.
As for `O=C(NCc1ccc2c(c1)OCO2)c1ccc2[nH]c(=O)n(Cc3cccs3)c(=O)c2c1`, the figure is 270 °C.
On to `CCCNC(=O)c1ccc(/C=C(\C)c2ccc3c(c2)C(C)(C)CCO3)cc1`, for which the melting point lay within 138 to 139 °C.
In the case of `COCCOc1ccc(/C=C/c2cc(/C=C/c3ccc4cc[nH]c4c3)n[nH]2)c(OC)c1`, the melting point lay within 90 to 96 °C.
In turn, `CSc1ccc(NS(=O)(=O)c2ccc(C)cc2)c([N+](=O)[O-])c1` registered a melting point of 116 to 117 °C.
Molecule `Fc1ccccc1C1=NCc2cncn2-c2ccc(Cl)cc21` came in with a melting point of 148 to 151 °C.
`N#CC(=Cc1ccsc1)C(=O)O` gave a melting point of 211 °C.
As to `COc1cc2c(cc1OC)C(=CN1CCN(C(=O)C3CCCCO3)CC1)C(=O)N2` (stereo not drawn), the melting point fell in the range of 208 to 210 °C.
`CC(C)c1ccc(C(=O)C(C)c2ccccc2)c(C(C)C)c1OS(N)(=O)=O` (stereo not drawn) yielded a melting point of 142 to 144 °C.
Regarding `CCCCCCCCCCCCCCCCCCC(=O)Nc1ccc(O)cc1`, the melting point stood at 138 °C.
In the case of `CC(C)c1ccc(N(Cc2cnn(Cc3cccs3)c2)C(=O)C2CCCc3c(O)cccc32)cn1` (stereo not drawn) it was 125 to 129 °C; in that of `CC(CC(Sc1cc(C(C)(C)C)c(O)c(C(C)(C)C)c1)Sc1cc(C(C)(C)C)c(O)c(C(C)(C)C)c1)Sc1cc(C(C)(C)C)c(O)c(C(C)(C)C)c1` (stereo not drawn), 125 to 126 °C; in that of `CCN(CC)C(=O)c1ccc2ccccc2c1-c1cccc(OC)c1`, 91 to 93 °C.
Take `c1cnc(C2CC(c3cnccn3)CC(c3cnccn3)C2)cn1` (stereo not drawn): the melting point lay in the range of 122 to 124 °C.
`Cc1nc2c3c(ccc2n1C)C(=O)C(OC(=O)C(C)(C)C)C(c1ccccc1)O3` (stereo not drawn) came in with a melting point of 255 °C.
As for `CCOC(=O)c1c(-c2ccc(C(C)(C)C)cc2)n(C)n(-c2ccc(C#N)cc2)c1=O`, the figure is 202 to 204 °C; as for `CCCCc1nc(Cl)c(CN2CCN(c3ccccc3OC)CC2)n1Cc1ccc(-c2ccccc2-c2nnn[nH]2)cc1`, 154 to 158 °C.
On to `Cc1cn(C(C)C(=O)N(C)C)nc1-c1cccs1` (stereo not drawn), for which the melting point lay within 100 to 102 °C.
As for `Cc1c(C)c2c(c(C)c1NC(=O)c1ccc3c(c1)OCO3)C(c1ccc(C(C)C)cc1)C(C)(C)O2` (stereo not drawn), the melting point is 165 to 167 °C.
For `CC(=NOCCO)c1ccc(-c2ccccc2)nc1`, the melting point was 76 °C.
Turning to `CN=Cc1c(C(=O)OC)[nH]c2c(C)ccc(C)c12`, the melting point was 261 to 262 °C.
In turn, `CCOC(=O)c1ccc(-c2nc(N)sc2Cc2ccc(S(C)(=O)=O)cc2)cc1` returned a melting point of 206 to 207 °C.
The molecule `C#CCNC(=O)c1ncn2c1CN(C)C(=O)c1c-2ccc(F)c1Cl` registered a melting point of 235 to 237 °C.
The molecule `COC(=O)N(C(C)C)C1C=C(C)CC=C1C(=O)c1ccc(F)cc1` (stereo not drawn) displayed a melting point of 98 to 102 °C.
`CC(C#Cc1ccc(Oc2c(F)cccc2F)o1)N(O)C(N)=O` (stereo not drawn) yielded a melting point of 161 °C.
In turn, `COC(=O)c1ccc(C=C2Cc3ccccc3C2=O)cc1` had a melting point of 194 to 198 °C.
As for `CCCCN1C(=O)NC(Cc2ccc(C(=O)OC)cc2)C1=O` (stereo not drawn), the figure is 144 °C.
The molecule `Nc1cc(C(=O)c2ccc(F)c(N)c2)ccc1F` came in with a melting point of 131 to 132 °C.
As for `N#Cc1nn(-c2c(Cl)cc(C(F)(F)F)cc2Cl)c(N)c1C1(C(F)(F)F)CC1`, the figure is 178 to 179 °C; as for `C=CC(=O)c1ccc([N+](=O)[O-])cc1`, 89 to 90 °C.
